Assays:
[1] = system: BMDMs; test: A1155463 in-vitro training assay in BMDMs; assay type: cell-based, mouse; conditions: 24 hours after challenge, vs PBS-trained
Experimental: (§1) FIGS. 5A-5F: Testing A1155463 as an inducer of trained immunity (TI) in vitro. FIG. 5A is a schematic diagram for in-vitro TI assay in bone marrow-derived macrophages (BMDMs). FIG. 5B is a graph showing interleukin-6 (IL-6) levels (expressed in picograms per milliliter (pg/ml) 24 hours (h) post PAM3-CSK4 (Pam3) challenge in an in-vitro TI assay in BMDMs trained with either phosphate buffered saline (PBS) (black) or A1155463 (pink); n=15. FIG. 5C is a graph showing tumor necrosis factor alpha (TNF-α) levels (pg/ml) 24 h post Pam3 challenge in an in-vitro TI assay in BMDMs trained with either PBS (black) or A1155463 (pink); n=10. FIG. 5D is a graph showing IL-6 levels (pg/ml) 24 h post-stimulation with PBS (black) or A1155463 (pink); n=3. FIG. 5E is a graph showing the fold change in TNF-α following Pam3 challenge in BMDMs trained with A1155463 pre-treated with PBS, MTA (histone methyl transferase inhibitor), EGCG (histone acetyltransferase inhibitor) or 2-DG (glycolysis inhibitor); n=15, significance compared with PBS control of each inhibitor. FIG. 5F is a graph of IL-6 levels (pg/ml) 24 h post Pam3 challenge in an in-vitro TI assay in BMDMs trained with either PBS (black) or A1155463 (pink) pretreated with varying concentrations of 2-DG; n=5.
A1155463 is a commercially available inhibitor of the B-cell lymphoma-extra large (Bcl-xL) protein. […]

[2] = system: BMDMs; test: A1155463 training with inhibitor pre-treatment (MTA, EGCG, 2-DG); assay type: cell-based, mouse
Experimental: as §1
After ruling out apoptosis and innate inflammation, an additional study was performed to attempt to determine the mechanism of action of A1155463-induced training in BMDMs. Training induces epigenetic and metabolic rewiring of macrophages which can be probed using small molecule inhibitors of various pathways.^16 Epigenetic changes are associated with increased histone methylation and acetylation, promoting transcription and translation of proinflammatory cytokines in response to pathogenic stimuli. Metabolic changes alter cellular metabolism, mostly favoring glycolysis, to meet the higher energy requirements of a trained cell. […]

[3] = system: mice; test: A1155463 in-vivo training, LPS challenge; parameters: species or system mouse
Experimental: FIGS. 6A-6H: in-vivo A1155463 trained immunity (TI) assays. FIG. 6A is a schematic showing the in-vivo training schedule. Mice were dosed intraperitoneally (i.p.) with training material (PBS or A1155463 at 15 milligrams per kilogram body weight (mg/kg)) daily for six days. […] FIG. 6B is a graph showing the interleukin-6 (IL-6) and tumor necrosis factor-alpha (TNF-α) levels (expressed as picograms per milliliter (pg/ml) 1 hour (h) following LPS challenge with either PBS (black) or A1155463 (pink); n=5. FIG. 6C is a graph showing the percentage (%) of small peritoneal macrophages (SPMs) from the peritoneal cavity of PBS (black) or A1155463 trained (pink) mice 2 h post LPS challenge on day 7. FIG. 6D is a graph showing the IL-6 levels (pg/ml) from bone-marrow cells isolated on day 7 challenged ex-vivo with LPS from either PBS (black) or A1155463 (pink) trained mice; n=3. FIG. 6E is a schematic showing the in-vivo training schedule for B16.F10 tumor challenge. FIG. 6F is a graph showing the tumor volumes (in cubic millimeters (mm3)) of mice trained with PBS (black) or A1155463 (pink) mice; n=8. FIG. 6G is a schematic of the in-vivo training schedule for B16.F10 tumor challenge with checkpoint therapy (CPT) administered on day 14 and 17. FIG. 6H is a graph showing tumor volumes (mm^3) of mice trained with PBS (black; n=4) or A1155463 (pink; n=5).
FIG. 10: Ruling out innate immune priming: Mice were trained with PBS or vehicle (black) or A1155463 (pink) according to schedule illustrated in FIG. 6A.
Since A1155463 induced training effects in-vitro, its ability to induce training in mice was studied. […] The vehicle control group was also dosed similarly to account for solvent effects. To rule out the impact of innate immune priming due to the high dosage, systemic cytokines were checked for 24 hours after the last dosing on day 6. […] […].
Apart from increased systemic cytokines, recruitment of monocyte-derived small peritoneal macrophages (SPMs) is another hallmark of enhanced training. […] Central effects of trained immunity occur at the bone-marrow progenitor favoring myelopoiesis.^39 To test if A1155463 induced training effects in bone-marrow cells, cells were isolated from the bone-marrow seven days following the training schedule described in FIG. 6A. Bone-marrow cells from PBS or A1155463 trained cells were challenged with 5 ng/mL of LPS and the supernatant was analyzed 24 hours later. […].

[4] = 15 mg/kg i.p. daily for 6 days, LPS 5 μg per mouse, after 1 hour

CN(C)CC#Cc1ccc(OCCCc2sc(N3CCc4cccc(C(=O)Nc5nc6ccccc6s5)c4C3)nc2C(=O)O)c(F)c1 [A1155463, 2-(8-(benzo[d]thiazol-2-ylcarbamoyl)-3,4-dihydroisoquinolin-2(1H)-yl)-5-(3-(4-(3-(dimethyl-amino)prop-1-yn-1-yl)-2-fluorophenoxy)propyl)thiozole-4-carboxylic acid]
increase in IL-6 following Pam3 challenge [1]: approximately 1.2 fold | increase in TNF-α following Pam3 challenge [1]: approximately 1.2 fold | training after epigenetic small molecule inhibitors (MTA, EGCG) ([2]; 30 min pre-treatment): no significant difference | Pam3 induced IL-6 levels with 2-DG ([2]; different concentrations of 2-DG): significant decrease | reduction in the TNF-α level following Pam3 challenge by 2DG pre-treatment ([2]; glycolysis inhibitor 2DG): 50% | systemic IL-6 or TNF-α without challenge (priming) ([3]; 15 mg/kg i.p. daily for 6 days, 24 hours after the last dosing): No systemic IL-6 or TNF-α was observed | increase in IL-6 following LPS challenge [3, 4]: 2.3 fold | increase in TNF-α following LPS challenge [3, 4]: 1.97 fold | percentage of SPMs ([3]; two hours post-LPS challenge): non-significant increase
